Assay results published in PubChem BioAssay (NCI).
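A five-concentration, 48-hour dose response in 96-well plates underlies each endpoint, interpolated linearly between surrounding concentrations. Abbreviation: GI50, concentration required for 50% inhibition of growth. The concentration for full growth arrest is given as TGI.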

Columns and labels:
Test in all cases: growth of human tumour cells (NCI), 48 h
[1] = test system: OVCAR-3 ovarian
[2] = test system: U251 CNS
[3] = test system: CCRF-CEM leukemia
[4] = test system: CAKI-1 renal
[5] = test system: MDA-MB-435
[6] = test system: HOP-62 NSCLC
[7] = test system: HT29 colon
[8] = test system: DU-145 prostate
[9] = test system: HCT-15 colon
[10] = test system: ACHN renal
[11] = test system: UACC-62 melanoma
[12] = test system: KM12 colon
[13] = test system: MCF7 breast
[14] = test system: HCC-2998 colon
[15] = test system: SF-268 CNS
[16] = test system: IGROV1 ovarian
[17] = test system: NCI/ADR-RES ovarian
[18] = test system: OVCAR-8 ovarian
[19] = test system: SK-MEL-5 melanoma
[20] = test system: SNB-75 CNS
[21] = test system: SK-MEL-2 melanoma
[22] = test system: HL-60(TB) leukemia
[23] = test system: A498 renal
[24] = test system: SNB-19 CNS
[25] = test system: HCT-116 colon
[26] = test system: NCI-H226 lung
[27] = test system: SK-OV-3 ovarian
[28] = test system: COLO 205 colon
[29] = test system: RPMI-8226 leukemia
[30] = test system: SK-MEL-28 melanoma
[31] = test system: BT-549 breast
[32] = test system: NCI-H23 lung
[33] = test system: MALME-3M melanoma
[34] = test system: SF-295 CNS
[35] = test system: UO-31 renal
[36] = test system: NCI-H522 lung
[37] = test system: SW-620 colon
[38] = test system: OVCAR-5 ovarian
[39] = test system: MOLT-4 leukemia
[40] = test system: MDA-MB-231 breast
[41] = test system: SR leukemia
[42] = test system: LOX IMVI melanoma
[43] = test system: RXF 393 renal
[44] = test system: K-562 leukemia
[45] = test system: A549 NSCLC
[46] = test system: NCI-H460 lung
[47] = test system: M14 melanoma
[48] = test system: EKVX NSCLC
[49] = test system: OVCAR-4 ovarian
[50] = test system: SF-539 CNS
[51] = test system: HS 578T breast
[52] = test system: SN12C renal
[53] = test system: T-47D breast
[54] = test system: TK-10 renal
[55] = test system: HOP-92 NSCLC
[56] = test system: PC-3 prostate
[57] = test system: UACC-257 melanoma
[58] = test system: 786-0 renal

## Oc1ccc2ccccc2c1N=Nc1ccccn1
[1]
  GI50: 0.266 µM
[2]
  GI50: 0.563 µM
  TGI: > 100 µM
[3]
  GI50: 0.312 µM
  TGI: 22.8 µM
[4]
  GI50: 0.138 µM
  TGI: 0.906 µM
[5]
  GI50: 2.11 µM
  TGI: > 100 µM
[6]
  GI50: 1.41 µM
  TGI: > 100 µM
[7]
  GI50: 0.523 µM
  TGI: > 100 µM
[8]
  GI50: 1.83 µM
  TGI: > 100 µM
[9]
  GI50: 0.497 µM
  TGI: > 100 µM
[10]
  GI50: 0.423 µM
  TGI: > 100 µM
[11]
  GI50: 1.35 µM
  TGI: 8.22 µM
[12]
  GI50: 0.919 µM
  TGI: > 100 µM
[13]
  GI50: 0.527 µM
  TGI: > 100 µM
[14]
  GI50: 2.35 µM
  TGI: > 100 µM
[15]
  GI50: 0.554 µM
  TGI: > 100 µM
[16]
  GI50: 0.349 µM
  TGI: 8.14 µM
[17]
  GI50: 0.575 µM
  TGI: 4.64 µM
[18]
  GI50: 0.447 µM
  TGI: > 27.4 µM
[19]
  GI50: 2.75 µM
  TGI: 15.6 µM
[20]
  GI50: 7.49 µM
  TGI: > 86.7 µM
[21]
  GI50: 3.08 µM
  TGI: > 82.5 µM
[22]
  GI50: 0.469 µM
  TGI: 3.23 µM
[23]
  GI50: 2.39 µM
  TGI: 20 µM
[24]
  GI50: 2.53 µM
  TGI: > 100 µM
[25]
  GI50: 0.277 µM
  TGI: 2.77 µM
[26]
  GI50: 1.94 µM
  TGI: > 87.9 µM
[27]
  GI50: 1.14 µM
  TGI: > 100 µM
[28]
  GI50: 0.431 µM
  TGI: 21.4 µM
[29]
  GI50: 1.98 µM
  TGI: > 100 µM
[30]
  GI50: 2.8 µM
  TGI: > 100 µM
[31]
  GI50: 3.44 µM
  TGI: > 100 µM
[32]
  GI50: 2.82 µM
  TGI: > 100 µM
[33]
  GI50: 2.07 µM
  TGI: 10.6 µM
[34]
  GI50: 0.8 µM
  TGI: 13.5 µM
[35]
  GI50: 0.306 µM
  TGI: > 25.8 µM
[36]
  GI50: 1.97 µM
  TGI: 43 µM
[37]
  GI50: 0.652 µM
  TGI: > 100 µM
[38]
  GI50: 4 µM
  TGI: > 100 µM
[39]
  GI50: 0.296 µM
  TGI: 12.5 µM
[40]
  GI50: 0.468 µM
  TGI: > 100 µM
[41]
  GI50: 0.356 µM
  TGI: 10.4 µM
[42]
  GI50: 0.356 µM
  TGI: 12.4 µM
[43]
  GI50: 3.44 µM
  TGI: > 100 µM
[44]
  GI50: 0.6 µM
  TGI: > 100 µM
[45]
  GI50: 2.95 µM
  TGI: > 59.3 µM
[46]
  GI50: 0.532 µM
  TGI: 5.49 µM
[47]
  GI50: 1.41 µM
  TGI: 7.1 µM
[48]
  GI50: 0.449 µM
  TGI: 43.4 µM
[49]
  GI50: 0.408 µM
  TGI: 3.87 µM
[50]
  GI50: 1.6 µM
  TGI: > 28.4 µM
[51]
  GI50: 7.52 µM
  TGI: > 52.8 µM
[52]
  GI50: 1.46 µM
  TGI: > 100 µM
[53]
  GI50: 0.681 µM
  TGI: > 28.4 µM
[54]
  GI50: 1.53 µM
  TGI: > 86.2 µM
[55]
  GI50: 3.02 µM
  TGI: > 100 µM
[56]
  GI50: 1.76 µM
  TGI: > 100 µM
[57]
  GI50: 2.01 µM
  TGI: 8.02 µM

## CC(C)NC(=O)OCc1c(COC(=O)NC(C)C)c(-c2ccc[n+](COC(=O)C3CC3)c2)n2c1CCC2
[1]
  TGI: > 100 µM
[2]
  TGI: > 100 µM
[3]
  TGI: > 100 µM
[4]
  TGI: 89 µM
[5]
  TGI: > 100 µM
[6]
  TGI: > 100 µM
[7]
  TGI: > 100 µM
[8]
  TGI: > 100 µM
[9]
  TGI: > 100 µM
[10]
  TGI: 82.7 µM
[11]
  TGI: > 100 µM
[12]
  TGI: > 100 µM
[13]
  TGI: > 100 µM
[14]
  TGI: > 100 µM
[15]
  TGI: > 100 µM
[16]
  TGI: > 100 µM
[17]
  TGI: > 100 µM
[18]
  TGI: > 100 µM
[19]
  TGI: > 100 µM
[20]
  TGI: > 100 µM
[21]
  TGI: > 100 µM
[22]
  TGI: > 100 µM
[23]
  TGI: 88.1 µM
[24]
  TGI: > 100 µM
[25]
  TGI: > 100 µM
[26]
  TGI: > 100 µM
[27]
  TGI: > 100 µM
[58]
  TGI: > 100 µM
[28]
  TGI: > 100 µM
[29]
  TGI: > 100 µM
[30]
  TGI: > 100 µM
[31]
  TGI: > 100 µM
[32]
  TGI: > 100 µM
[33]
  TGI: > 100 µM
[34]
  TGI: > 100 µM
[35]
  TGI: > 100 µM
[36]
  TGI: 63.1 µM
[37]
  TGI: > 100 µM
[38]
  TGI: > 100 µM
[39]
  TGI: > 100 µM
[40]
  TGI: > 100 µM
[41]
  TGI: > 100 µM
[42]
  TGI: > 100 µM
[43]
  TGI: > 100 µM
[44]
  TGI: > 100 µM
[45]
  TGI: > 100 µM
[46]
  TGI: > 100 µM
[47]
  TGI: > 100 µM
[48]
  TGI: > 100 µM
[49]
  TGI: > 100 µM
[50]
  TGI: > 100 µM
[51]
  TGI: > 100 µM
[52]
  TGI: > 100 µM
[53]
  TGI: > 100 µM
[54]
  TGI: > 100 µM
[55]
  TGI: > 100 µM
[56]
  TGI: > 100 µM
[57]
  TGI: > 100 µM
